Results from PubChem BioAssay (NCI).
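Step 1: Grow cells in 96-well plates. Step 2: Expose to compound for 48 hours at 5 concentrations. Step 3: Interpolate endpoints linearly; if unreached, use highest concentration. TGI denotes the concentration required for complete inhibition of growth.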

Columns and labels:
Experiment in all cases: NCI anticancer screen, dose series, 48 h
DMS 114 small cell lung = test system: DMS 114 small cell lung
DLD-1 colon = test system: DLD-1 colon
DMS 273 small cell lung = test system: DMS 273 small cell lung
M19-MEL melanoma = test system: M19-MEL melanoma
KM20L2 colon = test system: KM20L2 colon
RPMI-8226 leukemia = test system: RPMI-8226 leukemia
SNB-75 CNS = test system: SNB-75 CNS
XF 498 CNS = test system: XF 498 CNS
LXFL 529 NSCLC = test system: LXFL 529 NSCLC
HOP-18 NSCLC = test system: HOP-18 NSCLC
OVCAR-8 ovarian = test system: OVCAR-8 ovarian
SNB-78 CNS = test system: SNB-78 CNS
RXF-631 renal = test system: RXF-631 renal

Row | Compound | TGI (DMS 114 small cell lung) | TGI (DLD-1 colon) | TGI (DMS 273 small cell lung) | TGI (M19-MEL melanoma) | TGI (KM20L2 colon) | TGI (RPMI-8226 leukemia) | TGI (SNB-75 CNS) | TGI (XF 498 CNS) | TGI (LXFL 529 NSCLC) | TGI (HOP-18 NSCLC) | TGI (OVCAR-8 ovarian) | TGI (SNB-78 CNS) | TGI (RXF-631 renal)
1 | COC1=CC(=O)c2c(cc3c(c2O)-c2c(OC)cc4cc5c(c(O)c4c2OC(=O)CC(C)(O)C3)C(=O)CC(C)(O)C5)C1=O (stereo unspecified) | 3.58 µM | 9.01 µM | 5.31 µM | 1.52 µM | 5.29 µM | 5.85 µM | 3.51 µM | 3.23 µM | 4.6 µM | 5.39 µM | 6.49 µM | 7.12 µM | 
2 | CC(=O)Oc1ccc(Nn2c3ccccc3c3ccccc32)c(C)c1 | 79.8 µM | > 100 µM | 51.9 µM | > 100 µM | 78.9 µM | 58.5 µM |  | 77.3 µM | > 100 µM | 75.8 µM | 78.6 µM | 91.2 µM | 
3 | O=C(Cc1ccccc1)N/N=C(/c1nc2ccc([N+](=O)[O-])cc2[nH]c1=O)C(O)c1ccc(C(O)/C(=N/NC(=O)Cc2ccccc2)c2nc3ccc([N+](=O)[O-])cc3[nH]c2=O)cc1 (stereo unspecified) | > 100 µM | > 100 µM |  | > 100 µM | > 100 µM | > 100 µM | > 100 µM | > 100 µM | > 100 µM |  | > 100 µM |  | > 100 µM
4 | O=C1C=CC(=O)c2cc(Sc3ccccc3)c(=O)c(Sc3ccccc3)cc21 | 53.7 µM | > 100 µM | > 100 µM | > 100 µM | > 100 µM | > 100 µM | > 100 µM | > 100 µM | 70.3 µM | > 100 µM | > 100 µM |  | 
5 | O=[N+]([O-])c1ccc(CN=C2NNS(=O)(=O)c3ccccc32)cc1 | > 100 µM | > 100 µM | > 100 µM | > 100 µM | > 100 µM | > 100 µM |  | > 100 µM | > 100 µM |  | > 100 µM | > 100 µM | > 100 µM
6 | O=C(Cc1ccccc1)NN1C(=O)C(Cl)C1c1cccc([N+](=O)[O-])c1 (stereo unspecified) | > 93.4 µM | > 100 µM | > 100 µM | > 37.1 µM | > 100 µM | 47.8 µM |  | > 57.1 µM | 49.7 µM | > 100 µM | > 100 µM | > 100 µM | 
